Structures can show the parent of a compound that is named as a salt.
Columns and labels:
[1] = tested on: glucose oxidation by isolated hearts from starved rats; experiment: Glucose oxidation by isolated perfused hearts from starved rats (14C-glucose into CO2); format: cell-based; details: isolated starved-rat heart
Protocol: The rate of glucose oxidation by isolated hearts from starved rats is measured in a recirculating oxygenated perfusion system, by measuring the rate of incorporation of carbon-14 from carbon-14-labelled glucose into carbon dioxide using a method similar to those described by Morgan et al., Jour. […] The perfusate contains glucose, palmitate, insulin and bovine serum albumen.

[2] = tested on: pyruvate oxidation by diaphragm tissue from fat-fed rats; experiment: Pyruvate oxidation by diaphragm tissue from fat-fed rats (14C-pyruvate into CO2, in vitro); format: cell-based, rat; details: for activation at 500 µM: concentration of 0.5 mM, read-out: % Stimulation (of pyruvate oxidation)
Protocol: The compounds of formula (I) were tested for their ability to increase pyruvate oxidation as follows:
Diaphragm tissue is obtained from rats fed on a high fat diet similar to "Diet B" described by Zaragoza and Felber, Horm, Metab. Res., 2, 323 (1970). Pyruvate oxidation by such tissue is assessed by measurement of the rate of incorporation of carbon-14 from carbon-14-labelled pyruvate into carbon dioxide in vitro, as described by Bringolf, Eur. Jour. Biochem., 26, 360 (1972). The rate of pyruvate oxidation is depressed by 50-75% compared with that by diaphragm tissue from rats fed on a normal diet. […] The threshold concentration for such stimulation is about 0.25 millimolar and maximum stimulation of 170% is achieved at concentrations of 4 millimolar and above.

[3] = tested on: pyruvate dehydrogenase enzyme; experiment: Proportion of active pyruvate dehydrogenase (PDHa/PDHt) in hearts of fat-fed rats after treatment in vivo; parameters: species or system rat; details: heart; for PDHa/PDHt Ratio, Compound: 0.6 millimoles/kg.
Protocol: The total amount of the enzyme present (PDHt) and the amount which is present in the active form (PDHa) are assessed by a method similar to that described by Taylor et al., Jour. […] The fat-feeding process is found to depress the ratio PDHa/PDHt from a normal value of about 0.7 to a value in the range from 0.05 to 0.2. Treatment of fat-fed rats with L(+)-2-(4-hydroxyphenyl)glycine, either parenterally or orally, increases this ratio in a dose-dependent manner, the threshold doses for this effect being 0.05 millimole/kg. by intravenous injection and in the range 0.1 to 0.2 millimole/kg. by subcutaneous injection or by oral administration. The ratio is increased to a value in the range 0.8-1.0 (i.e., above that for rats on normal diet) by doses of 0.6 millimole/kg. and above.
The increase in the PDHa/PDHt ratio effected by other compounds of formula (I) at a dose level of 0.6 millimoles/kg. is shown in the following Table: […]

[4] = tested on: heart of anesthetized beagle dogs; experiment: Myocardial blood flow and metabolism in fasted, closed-chest, anesthetized, electrically paced beagle dogs; format: in vivo, dog
Protocol: The ability of compounds of formula (I) to reduce oxygen demand and affect the relative utilization of carbohydrate and lipid metabolites in the heart has been assessed by measuring the effect of the compounds on myocardial blood flow and metabolism in fasted, closed-chest, anesthetized beagle dogs, with cardiac catherization to enable simultaneous sampling of coronary sinus and arterial blood to be carried out. Coronary sinus blood flow is measured by the hydrogen gas clearance technique described by Aukland et al., Circulation Res., 14, 164 (1964). The heart is paced electrically at 155 beats/min. and recordings of hemodynamic parameters (blood pressure, left ventricular pressure and the first derivative of the latter) are made continuously. Control measurements of coronary blood flow are made and samples of blood taken at 40 minute intervals, both in an untreated animal and in the same animal dosed with an infusion of isoprenaline ([…].), which both stimulates cardiac contraction and increases plasma free fatty acid levels. The compound of formula (I) is then administered intravenously and measurements are made and samples taken again, 40 minutes and 90 minutes later. The blood samples from the artery and coronary sinus are analyzed for oxyhemoglobin, pyruvate and free fatty acid (FFA) content, differences between those of the arterial and coronary sinus blood, when multiplied by coronary blood flow, being a measure of oxygen consumption, pyruvate uptake and FFA uptake by the myocardium respectively.

[5] = tested on: rats in which diabetes has been induced by treatment with streptozotocin; experiment: Blood glucose levels in streptozotocin-diabetic rats; format: in vivo, rat
Protocol: The ability of compounds of formula (I) to decrease blood glucose levels has been assessed by measuring their effect on blood glucose levels in rats in which diabetes has been induced by treatment with streptozotocin (85 mg/kg.). Four days after such treatment, a number of rats are given 1 millimole/kg of the compound by intraperitoneal injection and a similar number are given placebo. The doses are repeated after a further 24 hours and 48 hours. Blood samples are taken from a tail vein immediately before each dosage (which is 2 hours after removal of the animals from food) and 1, 2 and 3 hours after the third dose.

[6] = 0.02 to 0.1 millimole/kg. intravenously

NC(C(=O)[O-])c1ccc(O)cc1.[Na+] (racemic) [DL-2-(4-hydroxyphenyl)glycine, sodium salt]
effect on rate of glucose oxidation (predicted, 'will be') [1]: significantly increased

CC(C)OC(=O)[C@@H](N)c1ccc(O)cc1 [Isopropyl L(+)-2-(4-hydroxyphenyl)glycinate]
activation at 500 µM ([2]; Rattus norvegicus): 34%

COC(=O)[C@@H](N)c1ccc(O)cc1 [Methyl L(+)-2-(4-hydroxyphenyl)glycinate]
activation at 500 µM ([2]; Rattus norvegicus): 89% | PDHa/PDHt Ratio, Compound ([3]; p.o. (oral)): 0.42 | PDHa/PDHt Ratio, Compound ([3]; s.c. (subcutaneous)): 0.69

COc1ccc([C@H](N)C(=O)O)cc1 [L(+)-2-(4-methoxyphenyl)glycine]
activation at 500 µM ([2]; Rattus norvegicus): 79% | effect on rate of glucose oxidation (predicted, 'will be') [1]: significantly increased

COc1ccc([C@H](N)C(=O)O)cc1 [L(+)-2-(4-methoxyphenyl)glycine, calcium salt]
effects on myocardial pyruvate uptake, blood flow, oxygen consumption and FFA uptake (predicted, 'will be found') [4]: effects similar to L(+)-2-(4-hydroxyphenyl)glycine

CCCCOC(=O)[C@@H](N)c1ccc(OC)cc1 [n-butyl L(+)-2-(4-methoxyphenyl)glycinate]
effect on pyruvate oxidation (predicted, 'will be found') [2]: stimulate pyruvate oxidation

COc1ccc([C@H](N)C(=O)[O-])cc1.[K+] [L(+)-2-(4-methoxyphenyl)glycine, potassium salt]
effect on PDHa/PDHt ratio (predicted, 'will be') [3]: significantly increased

COC(=O)[C@@H](N)c1ccc(OC)cc1 [methyl L(+)-2-(4-methoxyphenyl)glycinate gluconate]
effect on PDHa/PDHt ratio (predicted, 'will be') [3]: significantly increased

CCCOC(=O)[C@@H](N)c1ccc(O)cc1.Cl [n-propyl L(+)-2-(4-hydroxyphenyl)glycinate hydrochloride]
effect on rate of glucose oxidation (predicted, 'will be') [1]: significantly increased

CC(C)CCOC(=O)[C@@H](N)c1ccc(O)cc1 [3-Methylbutyl L(+)-2-(4-hydroxyphenyl)glycinate]
activation at 500 µM ([2]; Rattus norvegicus): 32% | PDHa/PDHt Ratio, Compound ([3]; s.c. (subcutaneous)): 0.51 | effects on myocardial pyruvate uptake, blood flow, oxygen consumption and FFA uptake (predicted, 'will be found') [4]: effects similar to L(+)-2-(4-hydroxyphenyl)glycine

N[C@H](C(=O)O)c1ccc(O)cc1 [L(+)-2-(4-hydroxyphenyl)glycine]
Emax ([2]; Rattus norvegicus, at concentrations of 4 millimolar and above, read-out: maximum stimulation of pyruvate oxidation): 170% | minimal effective concentration ([2]; Rattus norvegicus, in vitro, read-out: threshold concentration for stimulation of pyruvate oxidation): ~250 µM | rate of glucose oxidation ([1]; 2 millimolar in perfusate, normal rate 1.27+ 0.32, mean of 9 observations): 4.77 µmol/h | PDHa/PDHt ratio ([3]; doses of 0.6 millimole/kg. and above, fat-fed untreated 0.05 to 0.2, normal diet about 0.7): 0.8-1.0 | threshold dose for increase of PDHa/PDHt ratio ([3]; intravenous injection): 0.05 millimole/kg. | effect on hemodynamic parameters (blood pressure, left ventricular pressure and its first derivative) [4, 6]: no effect | effect on myocardial FFA uptake [4, 6]: generally decreased | increase of myocardial blood flow [4, 6]: up to 150% | period of increased myocardial pyruvate uptake after dosing [4, 6]: at least 90 minutes | decrease of myocardial oxygen consumption ([4]; 0.02 to 0.1 millimole/kg. intravenously, in the presence of isoprenaline): about 20% | increase of myocardial pyruvate uptake ([4]; 0.02 to 0.1 millimole/kg. intravenously, presence and absence of isoprenaline): at least 2 fold | blood glucose level after 2 days of treatment (immediately before the third dose) ([5]; 1 millimole/kg intraperitoneal daily, declined from 378± 8, placebo 383± 10, averages for 8 animals): 356± 4 mg/100 ml. | blood glucose level 2 hours after the third dose (minimum value) ([5]; 1 millimole/kg intraperitoneal, placebo 385± 7, averages for 8 animals): 313± 7 mg/100 ml.

COc1ccc([C@H](N)C(N)=O)cc1 [L(+)-2-(4-methoxyphenyl)glycinamide]
effect on pyruvate oxidation (predicted, 'will be found') [2]: stimulate pyruvate oxidation | effect on PDHa/PDHt ratio (predicted, 'will be') [3]: significantly increased

CCOC(=O)[C@@H](N)c1ccc(OC)cc1 [ethyl L(+)-2-(4-methoxyphenyl)glycinate]
effect on pyruvate oxidation (predicted, 'will be found') [2]: stimulate pyruvate oxidation

NC(C(=O)O)c1ccc(O)cc1 (racemic) [DL (racemic)-2-(4-hydroxyphenyl)glycine]
effect on pyruvate oxidation relative to the L(+)-isomer [2]: approximately half that of the L(+)-isomer | effect on PDHa/PDHt ratio relative to the L(+)-isomer ([3]; same dose levels): only half, or less than half, the effect of the L(+)-isomer

NC(=O)[C@@H](N)c1ccc(O)cc1 [L(+)-2-(4-hydroxyphenyl)glycinamide]
activation at 500 µM ([2]; Rattus norvegicus): 51% | effect on rate of glucose oxidation (predicted, 'will be') [1]: significantly increased | PDHa/PDHt Ratio, Compound ([3]; p.o. (oral)): 0.91 | PDHa/PDHt Ratio, Compound ([3]; s.c. (subcutaneous)): 0.93 | effects on myocardial pyruvate uptake, blood flow, oxygen consumption and FFA uptake (predicted, 'will be found') [4]: effects similar to L(+)-2-(4-hydroxyphenyl)glycine

Br.COc1ccc([C@H](N)C(=O)OCCC(C)C)cc1 [3-methylbutyl L(+)-2-(4-methoxyphenyl)glycinate hydrobromide]
effect on PDHa/PDHt ratio (predicted, 'will be') [3]: significantly increased

COC(=O)[C@@H](N)c1ccc(O)cc1.Cl [methyl L(+)-2-(4-hydroxyphenyl)glycinate hydrochloride]
effects on myocardial pyruvate uptake, blood flow, oxygen consumption and FFA uptake (predicted, 'will be found') [4]: effects similar to L(+)-2-(4-hydroxyphenyl)glycine

N[C@@H](C(=O)O)c1ccc(O)cc1 [D(-)-2-(4-hydroxyphenyl)glycine, reference compound]
effect on pyruvate oxidation ([2]; concentrations up to 4 mM): no significant effect | effect on rate of glucose oxidation ([1]; 2 millimolar in perfusate): no significant effect | effect on PDHa/PDHt ratio ([3]; dose levels up to 1.2 millimole/kg.): very little effect

— patent publication US4185116A, “L- and DL- Phenylglycines to treat diseases or conditions attributable to reduced carbohydrate metabolism” (priority 1976, dated 1980)
